# Experimental data reported in patent publication US7858585B2, “Hydrogels and uses thereof” (University of Delaware, priority 2005, dated 2010).
# Square brackets hold non-standard residues; d marks the D form. Ends that are not written are not given here. Peptide text beside a SMILES is read from it.
# Tests used:
# [1] = cited from earlier work
# [2] = system: fibroblasts (NIH 3T3, mouse); assay: Fibroblast adhesion and proliferation on hydrogel by optical microscopy; format: cell-based; details: fresh media provided; assay stopped after 1 month
# Experimental: These cells were used as a model system because of their importance in connective tissue development and their easily distinguished morphology when adhered to the hydrogel scaffold. Qualitative studies were performed in which cells were added to either polystyrene control wells or wells containing a uniform slab (3 mm thick) of MAX1-hydrogel. Cell adhesion was qualitatively monitored via direct observation of cell spreading after four hours from the time of initial cell seeding by optical microscopy (a quantitative cell attachment assay is described below, see also Akiyama, S. K. Functional analysis of cell adhesion: Quantitation of cell-matrix attachment, 2002; Vol. 69, pp 281-296). Non-adhered fibroblasts have rounded morphologies and adhered fibroblasts have spread morphologies Proliferation was measured both qualitatively by optical microscopy and quantitatively by a ^3H thymidine-based cell seeding assay as described below. Hydrogels were prepared in 48 well tissue culture plates by either one of the following protocols. Protocol 1: MAX1 was dissolved in water (resulting in an acidic solution, pH˜5) and an equal volume of buffer (pH 9, 250 mM borate, 20 mM NaCl) was added at room temperature to induce folding/self-assembly resulting in a 2 wt % hydrogel. The resulting gel was bathed in DMEM containing 10% calf serum and 10 mg/mL gentamicin. […]
# [3] = Temperature dependent CD of peptide folding and self-assembly (Tgel), with rheology of thermal reversibility; format: physicochemical; details: for Tgel, temperature at which folding and consequent self-assembly is triggered: 150 μM peptide, 125 mM Borate, 10 mM NaCl, pH 9, CD [θ]218; for reversibility of thermally induced hydrogelation: CD 150 μM and rheology 2 wt %, heating/cooling cycles 5-80° C.
# Description: At low temperature MAX1 is unfolded (and unassembled). At high temperature MAX1 folds into beta-sheet (and consequently self-assembles into a hydrogel). […] The relative hydrophobicity is MAX1>MAX2>MAX3 due to the isostructural but less hydrophobic substitutions of threonine for valine at the underlined positions. The most hydrophobic folds at the lowest temperature while the least hydrophobic folds at the highest temperature. This is a direct manifestations of the molecular parameter manipulations described in FIG. 2. Also shown are the calculated free energy of transfer of each corresponding unfolded peptide having an overall +8 charge state from octanol into water at 25° C. MAX1, the most hydrophobic has the highest free energy of transfer equal to 7.60 kcal/mol. MAX2 has a calculated transfer free energy of 6.88 kcal/mol, while the least hydrophobic MAX3 has the lowest energy of transfer of 6.45 kcal/mol.
# This allows the characteristics of the hydrogels of the invention to be varied by adjusting these parameters. […] It is well known that water is better able to solvate hydrophobic groups at low temperatures. This phenomenon has been used to describe the cold denaturation of proteins where some proteins unfold at low temperatures, exposing their hydrophobic interiors to aqueous solvent. A 150 μM aqueous solution of MAX1 unfolds when cooled below room temperature. The CD spectrum at 5° C. is consistent with random coil conformation, FIG. 9A. However, warming the solution to 40° C. results in a spectra consistent with β-sheet structure. […] In fact, previous studies involving the pH induced folding and self-assembly of MAX1 were performed at 20° C. At this temperature, folding and self-assembly are slow enough to be conveniently monitored. At higher temperatures, folding and self-assembly leading to hydrogelation is fast (instantaneous to seconds depending on concentration). If the formation of hydrophobic interactions affects the folding and self-assembly process, then altering the hydrophobic content of MAX1 should affect the temperature at which folding is triggered. […] MAX2 is identical to MAX1 except that one valine residue has been replaced with the isostructural, but less hydrophobic residue, threonine. In MAX3, two valines are replaced with threonine residues. The resulting peptides vary in their hydrophobicity as evident by comparing calculated free energies of transfer from octanol into water, FIG. 9. […] Thus, the formation of hydrophobic contacts influences folding and self-assembly. […] Thus, the characteristics of the hydrogels of the invention can be varied by adjusting the amino acid residues of the peptides used to form the hydrogels to increase or decrease the hydrophobicity of the amino acid residues used.
# There are reports of large polymers that are thermally responsive. The present invention provides the first system that employs temperature triggered folding to induce self-assembly. […] Heating the solution to 80° C. results in a spectra consistent with β-sheet structure. […] The temperatures used in both CD and rheology bracket the temperature (Tgel=60° C., FIG. 9) at which folding and consequent self-assembly is triggered. […] For example, free flowing peptide solutions could be prepared at room temperature and administered in vivo where the temperature of the body could induce gelation. Some Poly-N-isopropylacrylamide polymers have been engineered have been engineered to undergo such transitions ultimately affording extracellular-like scaffolds for tissue regeneration. The above studies support the idea that the formation of hydrophobic interactions are important. MAX1-3 all contain valines and threonines at hydrogen bonded positions. At these positions, their side chains prefer to adopt a trans rotamer. […]
# [4] = Folding (CD) and hydrogelation of sequence variants under folding conditions; format: physicochemical; details: for conformation by CD under folding conditions: 150 μM, pH 9.0, 125 mM Borate, 10 mM NaCl
# Description: In some embodiments of the invention, various functionalities (e.g., cell adhesion epitopes, receptor agonists, receptor antagonists, ligands, small molecules, etc) may be incorporated into the hairpin hydrogel scaffold. One way to accomplish this would be to functionalize one or more amino acid side chains of the peptide. […] In some embodiments, the moieties to be incorporated at a particular side chain may be much larger (e.g. RGD-based motifs) and may contain charged residues. MAX5 (VKVKVKVKV^DPPTKVKEKVKV-NH2) was prepared to investigate the possibility of incorporating a charged residue on the hydrophobic face of MAX1. The sequence contains a glutamic acid residue at position 16 which is negatively charged at basic pH where MAX1 normally folds and assembles. […] However, alterations to the hydrophilic face of MAX1 are well tolerated. Sequences in which one or two lysine residues are replaced with other residues such as cysteine, serine, and glutamic acid are capable of folding and self-assembly into rigid hydrogels (data not shown).
# The peptides described above contain identical turn sequences, namely (-V^DPPT-). This sequence has a strong propensity to form a type II′ turn and therefore helps to drive intramolecular folding. Since intramolecular folding must occur prior to self-assembly, alterations to this turn sequence that inhibit turn structure formation can be used to modulate intramolecular folding and self-assembly leading to hydrogelation. MAX9 was prepared to probe the importance of the turn region (VKVKVKVKV^LPPTKVKVKVKV-NH2). MAX9 is identical to MAX1 with the exception that the ^DPro at position ten has been replaced with ^LPro. Unlike the dipeptide ^DPro^LPro contained within MAX1 that favors type II′ turn formation, the ^LPro^LPro motif of MAX9 favors an open conformation. The two strands emanating from an open ^LPro^LPro conformation would be projected in opposite directions. Thus, intramolecular folding resulting in β-hairpin formation would be highly unfavored. […]
molecule,measurement,setting,value
NC(=O)CN1CCN(CC(N)=O)CCN(CC(N)=O)CCN(CC(N)=O)CC1 [DOTAM],Kd,[1]; read-out: Kd for calcium,29 nM
"CC(C)[C@H](N)C(=O)N[C@@H](CCCCN)C(=O)N[C@H](C(=O)N[C@@H](CCCCN)C(=O)N[C@H](C(=O)N[C@@H](CCCCN)C(=O)N[C@H](C(=O)N[C@@H](CCCCN)C(=O)N[C@H](C(=O)N1CCC[C@@H]1C(=O)N1CCC[C@H]1C(=O)N[C@H](C(=O)N[C@@H](CCCCN)C(=O)N[C@H](C(=O)N[C@@H](CCCCN)C(=O)N[C@H](C(=O)N[C@@H](CCCCN)C(=O)N[C@H](C(=O)N[C@@H](CCCCN)C(=O)N[C@H](C(N)=O)C(C)C)C(C)C)C(C)C)C(C)C)[C@@H](C)O)C(C)C)C(C)C)C(C)C)C(C)C [MAX1, VKVKVKVK V^DPPT KVKVKVKV-NH2] (H-VKVKVKVKV[dP]PTKVKVKVKV-NH2)",time cells remain viable on gel,[2],≥ 1 month
-DRKADGYIDFEE-,Kd for Ca(II),"[1]; linear peptide, calcium binding loop of Troponin C",low mM
KVKVKVKV K^DPPS VKVKVKVK-NH2 [MAX4],"Tgel, temperature at which folding and consequent self-assembly is triggered",[3],20 °C
VKVKVKTK V^DPPT KVKTKVKV-NH2 [MAX3],"Tgel, temperature at which folding and consequent self-assembly is triggered",[3],60 °C
same,reversibility of thermally induced hydrogelation,[3],thermally reversible
VKVKVKVK VPPT KVKVKVKV-NH2 (VKVKVKVKVPPTKVKVKVKV-NH2) [MAX9],conformation by CD under folding conditions,[4],only random coil
same,hydrogelation,"[4]; folding conditions, 2 wt % solutions",failed to undergo hydrogelation
VKVKVKVK V^DPPT KVKEKVKV-NH2 [MAX5],conformation by CD under folding conditions,[4],random coil
VKVKVKVK V^DPPT KVKTKVKV-NH2 [MAX2],reversibility of thermally induced hydrogelation,[3],not reversible
same,temperature above which peptide folds/self-assembles,[3]; pH 9 (10 mM NaCl),greater than 45 °C
same,temperature below which peptide is unfolded,[3]; pH 9 (10 mM NaCl),below 40 °C
